Results: patent EP0428132A1, “Pradimicin derivatives” (Bristol-Myers Squibb Company, priority 1989, dated 1991)
In brackets after ≈: the same amount, converted by molar mass.

Experiments:
[1] = tested on: Sprotricosis schenckii IFO8158; test: In vitro antifungal activity, serial agar dilution method (Table 1); assay type: cell-based; conditions: for MIC: 40 h, pH 7, read-out: MIC, Sprotricosis schenckii IFO8158; for Partial Inhibition, Sprotricosis schenckii IFO8158: value in parentheses = Partial Inhibition, Sabouraud dextrose agar (pH 7.0), 28°C for 40 hours
Procedure: (§1) The inoculum size was adjusted to 10⁶ cells/ml, and a volume of approximately 0.003 ml of fungal suspension was applied to the surface of the antibiotic containing agar plates with a multiinoculator. After incubation, the lowest concentration of antibiotic causing virtually complete inhibition of fungal growth was determined as the minimum inhibitory concentration (MIC). Table 1. [table]

[2] = tested on: Aspergillus fumigatus IAM2034; test: as above; assay type: cell-based; conditions: Sabouraud dextrose agar (pH 7.0), 28°C for 40 hours; for MIC: Aspergillus fumigatus, IAM2034; for Partial Inhibition, Aspergillus fumigatus IAM2034: value in parentheses = Partial Inhibition
Procedure: as §1

[3] = tested on: Trichophyton mentagrophytes #4329; test: as above; assay type: cell-based; conditions: Sabouraud dextrose agar (pH 7.0), 28°C for 40 hours; for MIC: Trichophyton mentagrophytes
Procedure: as §1

Candida albicans IAM4888 = test: as above; assay type: cell-based; conditions: Sabouraud dextrose agar (pH 7.0), 28°C for 40 hours; for MIC: Candida albicans, IAM4888
Procedure: as §1

Mucor spinosus IFO5317 = test: as above; assay type: cell-based; conditions: Sabouraud dextrose agar (pH 7.0), 28°C for 40 hours; for MIC: Mucor spinosus, IFO5317; for Partial Inhibition, Mucor spinosus IFO5317: value in parentheses = Partial Inhibition
Procedure: as §1

[4] = tested on: Trichophyton mentagrophytes D155; test: as above; assay type: cell-based; conditions: Trichophyton mentagrophytes, D155; Sabouraud dextrose agar (pH 7.0); 28°C for 40 hours
Procedure: as §1

[5] = tested on: Fusarium moniliforme A2284; test: as above; assay type: cell-based; conditions: Fusarium verticillioides, A2284; Sabouraud dextrose agar (pH 7.0); 28°C for 40 hours
Procedure: as §1

[6] = tested on: Cryptococcus neoformans IAM4514; test: as above; assay type: cell-based; conditions: Cryptococcus neoformans, IAM4514; Sabouraud dextrose agar (pH 7.0); 28°C for 40 hours
Procedure: as §1

[7] = tested on: Petriellidium boydii IFO8078; test: as above; assay type: cell-based; conditions: Scedosporium boydii, IFO8078; Sabouraud dextrose agar (pH 7.0); 28°C for 40 hours
Procedure: as §1

[8] = tested on: Aspergillus fumigatus IAM2530; test: as above; assay type: cell-based; conditions: Sabouraud dextrose agar (pH 7.0), 28°C for 40 hours; for MIC: Aspergillus fumigatus, IAM2530
Procedure: as §1

[9] = tested on: Cryptococcus neoformans D49; test: as above; assay type: cell-based; conditions: Cryptococcus neoformans, D49, 40 h, pH 7, read-out: MIC, Cryptococcus neoformans D49
Procedure: as §1

Candida albicans A9540 [10] = test: as above; assay type: cell-based; conditions: Sabouraud dextrose agar (pH 7.0), 28°C for 40 hours; for MIC: Candida albicans, A9540
Procedure: as §1

[11] = tested on: Blastomyces dermatidis D40; test: as above; assay type: cell-based; conditions: for MIC: Blastomyces, D40, 40 h, pH 7, read-out: MIC, Blastomyces dermatidis D40; for Partial Inhibition, Blastomyces dermatidis D40: value in parentheses = Partial Inhibition, Sabouraud dextrose agar (pH 7.0), 28°C for 40 hours
Procedure: as §1

FA21436 = test: as above; assay type: cell-based, Asoergukkys flavus; conditions: for MIC: 40 h, pH 7, read-out: MIC, Asoergukkys flavus FA21436; for Partial Inhibition, Asoergukkys flavus FA21436: value in parentheses = Partial Inhibition, Sabouraud dextrose agar (pH 7.0), 28°C for 40 hours
Procedure: as §1

Candida albicans A9540 [12] = test: Intravenous Candida albicans infection mouse model, Table 2 part A; assay type: in vivo; conditions: drug administered once just after infection, 20 days after fungal challenge, method of Litchfield and Wilcoxon, male ICR mice
Procedure: Several compounds were also evaluated in an intravenous Candida albicans […] infection mouse model. The test organism was suspended in saline approximately 10 times the median lethal dose of the fungus (10⁶ cells/mouse) were used to infect intravenously male ICR mice weighing 20 to 24 g. Groups of five mice at each dose level were given the test compounds intravenously or intramuscularly. The 50% protective dose (PD₅₀) was calculated from survival rates recorded 20 or 21 days after the fungal challenge. Control animals died between 7 to 15 days.

[13] = value in parentheses = Partial Inhibition

Procedure for physchem: The sample (3 ∼ 3.5 mg) was suspended in 1 ml of PBS(-) or PBS(+), sonicated at 30°C for 10 minutes, and allowed to stand at room temperature for 2 hours. The resulting solution or suspension was centrifuged at 12,000 rpm for 10 minutes. The supernatant (pH 6.7 ∼ 7.2) was diluted (5 x or 50 x) with 0.01N NaOH (pH ca. 11.5) and its UV absorption at 500 nm was measured. The solubility was assessed by the absorption coefficient value with reference to the standard. […] The zwitterionic form sample was used for the solubility test as it is. The hydrochloride salt sample (3 mg) was dissolved in 3 ml of distilled water and neutralized with 0.01N NaOH, and then the solution was lyophilized to give a test sample.
Dulbecco's phosphate buffered saline (PBS) solution was used. Preparation of PBS(-) solution: One PBS(-) tablet (Flow Laboratories, Cat. No. 28-103-05) was dissolved in 100 ml distilled water, and the solution was autoclaved for 10 minutes at 115°C. This solution contains 0.2 g/L of KCl, 0.2 g/L of KH₂PO₄, 8 g/L of NaCl, and 1.15 g/L of Na₂HPO₄. Preparation of PBS(+) solution: One PBS(-) tablet was dissolved in 80 ml distilled water; 10 mg of CaCl₂ was dissolved in 10 ml distilled water; 10 mg of MgCl₂, 6H₂O was dissolved in 10 ml distilled water. These solutions were separately autoclaved, as described above, and mixed when cooled.

SMILES	MIC [1]	Partial Inhibition, Sprotricosis schenckii IFO8158 [1]	MIC [2]	MIC [3]	MIC (Candida albicans IAM4888)	MIC (Mucor spinosus IFO5317)	Partial Inhibition, Mucor spinosus IFO5317 (Mucor spinosus IFO5317)	MIC [4]	MIC [5]	MIC [6]	MIC [7]	MIC [8]	MIC [9]	MIC (Candida albicans A9540 [10])	MIC [11]	MIC (FA21436)	PD₅₀ (Candida albicans A9540 [12])	solubility at 2 h (physchem; Method II (+): PBS(+))	solubility at 2 h (physchem; Method II (-): PBS(-))	Partial Inhibition, Asoergukkys flavus FA21436 (FA21436)	further results
COc1cc(O)c2c(c1)C(=O)c1c(cc3c(c1O)-c1c(cc(C)c(C(=O)N[C@H](C)C(=O)O)c1O)[C@H](O[C@@H]1O[C@H](C)[C@H](N(C)CC(=O)O)[C@H](O[C@@H]4OC[C@@H](O)[C@H](O)[C@H]4O)[C@H]1O)[C@H]3O)C2=O [Ex. 1, N-(carboxymethyl) pradimicin A]	> 100 µg/mL	50.0 µg/mL	> 100 µg/mL	> 100 µg/mL	50 µg/mL (≈ 55.6 µM)	> 100 µg/mL	>100.0 (100.0) µg/ml	> 100 µg/mL	> 100 µg/mL	12.5 µg/mL (≈ 13.9 µM)	> 100 µg/mL	100 µg/mL (≈ 111 µM)	25 µg/mL (≈ 27.8 µM)	50 µg/mL (≈ 55.6 µM)	> 100 µg/mL	> 100 µg/mL	45 mg/kg	> 31 mg/mL	> 30 mg/mL		Partial Inhibition, Aspergillus fumigatus IAM2034 [2]: 50.0 µg/mL; Partial Inhibition, Blastomyces dermatidis D40 [11]: 50.0 µg/mL
COc1cc(O)c2c(c1)C(=O)c1c(cc3c(c1O)-c1c(cc(C)c(C(=O)N[C@H](C)C(=O)O)c1O)[C@H](O[C@@H]1O[C@H](C)[C@H](N(C)CC(N)=O)[C@H](O[C@@H]4OC[C@@H](O)[C@H](O)[C@H]4O)[C@H]1O)[C@H]3O)C2=O [Ex. 2, N-(carbamoylmethyl) pradimicin A]	25 µg/mL (≈ 27.8 µM)	12.5 µg/mL	> 100 µg/mL	> 100 µg/mL	25 µg/mL (≈ 27.8 µM)	> 100 µg/mL	>100.0 (100.0) µg/ml	> 100 µg/mL	> 100 µg/mL	3.1 µg/mL (≈ 3.45 µM)	> 100 µg/mL	12.5 µg/mL (≈ 13.9 µM)	12.5 µg/mL (≈ 13.9 µM)	50 µg/mL (≈ 55.7 µM)	25 µg/mL (≈ 27.8 µM)	> 100 µg/mL	29 mg/kg		11 mg/mL (≈ 12300 µM)	50.0 µg/mL	Partial Inhibition, Aspergillus fumigatus IAM2034 [2]: 50.0 µg/mL; Partial Inhibition, Blastomyces dermatidis D40 [11]: 12.5 µg/mL
CCOC(=O)CN(C)[C@@H]1[C@H](O[C@@H]2OC[C@@H](O)[C@H](O)[C@H]2O)[C@@H](O)[C@H](O[C@H]2c3cc(C)c(C(=O)N[C@H](C)C(=O)O)c(O)c3-c3c(cc4c(c3O)C(=O)c3cc(OC)cc(O)c3C4=O)[C@@H]2O)O[C@@H]1C [Ex. 3, N-(ethoxycarbonylmethyl) pradimicin A]	25 µg/mL (≈ 27 µM)	12.5 µg/mL	> 100 µg/mL	> 100 µg/mL	25 µg/mL (≈ 27 µM)	> 100 µg/mL	>100.0 (100.0) µg/ml	> 100 µg/mL	> 100 µg/mL	6.3 µg/mL (≈ 6.8 µM)	> 100 µg/mL	50 µg/mL (≈ 53.9 µM)	6.3 µg/mL (≈ 6.8 µM)	50 µg/mL (≈ 53.9 µM)	100 µg/mL (≈ 108 µM)	> 100 µg/mL	18 mg/kg		11 mg/mL (≈ 11900 µM)	50.0 µg/mL	Partial Inhibition, Aspergillus fumigatus IAM2034 [2]: >100.0 (100.0) µg/ml; Partial Inhibition, Aspergillus fumigatus IAM2530 [8, 13]: 25.0 µg/mL; Partial Inhibition, Blastomyces dermatidis D40 [11]: 12.5 µg/mL
COc1cc(O)c2c(c1)C(=O)c1c(cc3c(c1O)-c1c(cc(C)c(C(=O)N[C@H](C)C(=O)O)c1O)[C@H](O[C@@H]1O[C@H](C)[C@H](NCS(=O)(=O)O)[C@H](O[C@@H]4OC[C@@H](O)[C@H](O)[C@H]4O)[C@H]1O)[C@H]3O)C2=O [Ex. 7, N-(sodiosulfomethyl) pradimicin C]	1.6 µg/mL (≈ 1.74 µM)		> 50 µg/mL	25 µg/mL (≈ 27.1 µM)	3.1 µg/mL (≈ 3.37 µM)	> 50 µg/mL		50 µg/mL (≈ 54.3 µM)	> 50 µg/mL	0.4 µg/mL (≈ 0.434 µM)	> 50 µg/mL	3.1 µg/mL (≈ 3.37 µM)	0.4 µg/mL (≈ 0.434 µM)	3.1 µg/mL (≈ 3.37 µM)	3.1 µg/mL (≈ 3.37 µM)	> 50 µg/mL	7.2 mg/kg		0.003 mg/mL (≈ 3.26 µM)	3.1 µg/mL	Partial Inhibition, Trichophyton mentagrophytes #4329 [3, 13]: 3.1 µg/mL
COc1cc(O)c2c(c1)C(=O)c1c(cc3c(c1O)-c1c(cc(C)c(C(=O)N[C@H](C)C(=O)O)c1O)[C@H](O[C@@H]1O[C@H](C)[C@H](N(C)C=O)[C@H](O[C@@H]4OC[C@@H](O)[C@H](O)[C@H]4O)[C@H]1O)[C@H]3O)C2=O [Ex. 9, N-formyl pradimicin A]	50 µg/mL (≈ 57.6 µM)		50 µg/mL (≈ 57.6 µM)	25 µg/mL (≈ 28.8 µM)	25 µg/mL (≈ 28.8 µM)	> 100 µg/mL	50.0 µg/mL	25 µg/mL (≈ 28.8 µM)	> 100 µg/mL	12.5 µg/mL (≈ 14.4 µM)		50 µg/mL (≈ 57.6 µM)	25 µg/mL (≈ 28.8 µM)	25 µg/mL (≈ 28.8 µM)	100 µg/mL (≈ 115 µM)	> 100 µg/mL	>50 mg/kg	> 32 mg/mL			
COc1cc(O)c2c(c1)C(=O)c1c(cc3c(c1O)-c1c(cc(C)c(C(=O)N[C@H](C)C(=O)O)c1O)[C@H](O[C@@H]1O[C@H](C)[C@H](N(C)C(=O)CN)[C@H](O[C@@H]4OC[C@@H](O)[C@H](O)[C@H]4O)[C@H]1O)[C@H]3O)C2=O [Ex. 10, N-glycyl pradimicin A]	12.5 µg/mL (≈ 13.9 µM)		100 µg/mL (≈ 111 µM)	12.5 µg/mL (≈ 13.9 µM)	6.3 µg/mL (≈ 7.02 µM)	> 100 µg/mL		12.5 µg/mL (≈ 13.9 µM)	> 100 µg/mL	1.6 µg/mL (≈ 1.78 µM)		12.5 µg/mL (≈ 13.9 µM)	1.6 µg/mL (≈ 1.78 µM)	12.5 µg/mL (≈ 13.9 µM)	12.5 µg/mL (≈ 13.9 µM)	> 100 µg/mL	30 mg/kg	1 mg/mL (≈ 1110 µM)			
COc1cc(O)c2c(c1)C(=O)c1c(cc3c(c1O)-c1c(cc(C)c(C(=O)N[C@H](C)C(=O)O)c1O)[C@H](O[C@@H]1O[C@H](C)[C@H](N(C)C(=O)CCN)[C@H](O[C@@H]4OC[C@@H](O)[C@H](O)[C@H]4O)[C@H]1O)[C@H]3O)C2=O [Ex. 11, N-(β-alanyl) pradimicin A]	6.3 µg/mL (≈ 6.91 µM)		100 µg/mL (≈ 110 µM)	100 µg/mL (≈ 110 µM)	12.5 µg/mL (≈ 13.7 µM)	> 100 µg/mL	25.0 µg/mL	100 µg/mL (≈ 110 µM)	> 100 µg/mL	1.6 µg/mL (≈ 1.75 µM)	> 100 µg/mL	50 µg/mL (≈ 54.8 µM)	1.6 µg/mL (≈ 1.75 µM)	12.5 µg/mL (≈ 13.7 µM)	12.5 µg/mL (≈ 13.7 µM)	> 100 µg/mL	36 mg/kg	0.25 mg/mL (≈ 274 µM)		>100.0 (100.0) µg/ml	Partial Inhibition, Candida albicans IAM4888 (Candida albicans IAM4888; [13]): 6.3 µg/mL; Partial Inhibition, Candida albicans A9540 (Candida albicans A9540 [10]; [13]): 6.3 µg/mL
